Laboratory results as given in patent publication US9321772B2, “Substituted pyrazolo[3,4-D]pyrimidines and uses thereof” (The Regents of the University of California, priority 2011, dated 2016).
“Also recorded” adds a separate entry of the source.

Tests used:
[1] = tested on: ptc>dRet^MEN2B wing cells; assay: Wing-based assay for transformation and cell migration (ptc>dRetMEN2B); assay type: in vivo, Drosophila; details: oral administration
From the text: FIG. 4E. Quantification of ptc>dRet^MEN2B phenotypes. Invasion was established by scoring for single/groups of GFP-labeled cells that relocated away from the ptc boundary (FIG. 4C, asterisks). Basal migration was scored as indentation of the apical surface (see FIG. 2B, arrows). Proliferation was scored as significant widening of the ptc boundary. The number of wings analyzed under each condition is indicated in brackets.
We previously developed a wing-based assay for transformation and cell migration that we utilized to explore Ras- and Src-based tumorigenesis (Vidal, M., D. E. Larson, and R. L. Cagan, Dev Cell, 2006. 10(1): p. 33-44). In this assay, the ptc-GAL4 driver directed oncogene expression in a stripe along the anterior-posterior axis; oncogene-based transformation led to over-proliferation, epithelial-to-mesenchymal transition (EMT), and cell migration away from the ptc domain.

[2] = tested on: 765>dRet^MEN2B wings (Ras/Erk pathway activity); assay: Adult wing vein pattern assay (765>dRetMEN2B); assay type: in vivo, Drosophila; details: drug fed flies
From the text: The adult Drosophila wing consists of a stereotypical pattern of […] and two cross-veins; increased Ras/Erk pathway activity leads to ectopic veins (e.g., Refs. (Sawamoto, K. et al., Dev Biol, 1996. 178(1): p. 13-22; Guichard, A. et al., Development, 1999. 126(12): p. 2663-76)). Expression of oncogenic dRet throughout the developing wing (765>dRet^MEN2B) led to disruption of the overall adult wing pattern including ectopic wing veins (FIG. 3D). Reducing gene dosage of the erk ortholog rolled (765>dRet^MEN2B erk−/+) suppressed these phenotypes (FIG. 3D), confirming that wing vein formation is dependent on Ras/Erk activity.

[3] = target: T1, Ret kinase domain (Homo sapiens, UniProt P07949); assay: In vitro kinase assay, Ret; assay type: biochemical
T1 construct: determined against a purified form of the Ret kinase domain
T1 sequence (P07949 724-1016 limits assumed): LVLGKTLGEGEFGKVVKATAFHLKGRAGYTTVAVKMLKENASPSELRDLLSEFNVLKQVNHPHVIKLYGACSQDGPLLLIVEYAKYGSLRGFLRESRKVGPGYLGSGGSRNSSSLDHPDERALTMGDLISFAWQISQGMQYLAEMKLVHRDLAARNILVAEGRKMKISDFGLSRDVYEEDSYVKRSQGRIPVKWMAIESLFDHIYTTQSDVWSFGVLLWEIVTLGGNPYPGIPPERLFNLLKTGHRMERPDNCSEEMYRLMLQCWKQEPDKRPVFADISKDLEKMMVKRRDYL
Description: FIG. 1D. […] Half maximal inhibitory concentrations (IC50) were determined against a purified form of the Ret kinase domain.
(§1) Using in vitro kinase assays we tested AD57, AD36, and AD58 at 1 μM for activity against approximately one-half of the human kinome (FIG. 1E): 165 Ser/Thr kinases, 91 Tyr kinases, and 10 PI kinases were assayed, totaling 266 kinases (244 distinct kinases plus 22 mutant isoforms; see FIG. 6A-6C, FIG. 7A-7F, and FIG. 8 for measured inhibition values).
(§2) At least three major pathways are required for dRet^MEN2B-mediated transformation: Ras, Src, and glucose metabolism/PI3K (FIG. 3A; Ref (Read, R. D. et al., Genetics, 2005. 171(3): p. 1057-81)). We utilized in vitro kinase assays to assess compound activity against relevant kinases from each of these pathways, specifically Ret, B-Raf, Src, Tor, and S6K (FIG. 3B).

[4] = target: Src (Homo sapiens, UniProt P12931); assay: In vitro kinase assay, Src; assay type: biochemical; details: in vitro kinase profile, 1 μM
Description: as §1, §2

[5] = target: mTor (Homo sapiens, UniProt P42345); assay: In vitro kinase assay, mTor; assay type: biochemical; details: in vitro kinase profile, 1 μM
Description: as §1, §2

[6] = tested on: MZ-CRC-1 (MEN2B) cancer cell line; assay: MZ-CRC-1 cell viability (MTT assay); assay type: cell-based, human
[7] = tested on: TT (MEN2A) thyroid cancer cells; assay: TT cell viability (MTT assay); assay type: cell-based, human
Description: (§3) FIG. 18A-18D. […] FIG. 18A. MEN2B (MZ) thyroid cancer cells were treated with the indicated concentrations of each inhibitor (7 days) and cell viability was quantitated by MTT assay. FIG. 18B. MEN2A (TT) thyroid cancer cells were treated with the indicated concentrations of each inhibitor (7 days) and cell viability was quantitated by MTT assay. FIG. 18C. […] Change in tumor volume was calculated per mouse. Values shown are the median percent change per group. 20 and 10 animals for vehicle and drug treated mice, respectively, were analyzed. FIG. 18D. Body weight measurements of AD80, Vandetanib (VD) and vehicle treated nude mice transplanted with TT cells. Values shown are the median of 20 and 10 animals for vehicle and drug treated mice, respectively.

[8] = tested on: MEN2A (TT) thyroid cancer cells; assay: Immunoblot analysis of drug-treated TT cells; assay type: cell-based, human; details: for phospho-Ret and downstream biomarkers: 1 hour of treatment; for cell death (protein markers of apoptosis): 3 days, 2 μM
Description: FIG. 19. […] MEN2A (TT) and MEN2B (MZ) thyroid cancer cells were treated with the indicated drugs for 3 days at a final concentration of 2 μM. Cell lystates were immunoblotted for protein markers of apoptosis. Vandetanib (vand.) was included for comparison.
FIG. 20A-20B. […] FIG. 20A. MEN2B (MZ) and FIG. 20B. MEN2A (TT) thyroid cancer cells were treated with the indicated concentrations of drug. Following 1 hour of treatment, cells were harvested and lysates prepared for immunoblotting to detect the indicated proteins. VD=vandetanib; SF=sorafenib.

[9] = tested on: TT cell tumors in athymic nu/nu mice; assay: MEN2 (TT) mouse xenograft model; assay type: in vivo; details: for reduction of tumor progression relative to vehicle: nude mice transplanted with TT cells, oral gavage, median per group; for toxicity as assessed by animal body weights / tumor growth, in words: nude mice with TT tumors, PO administration
Description: FIG. 11. […] TT thyroid cancer cells were implanted into athymic nu/nu mice subcutaneously into the right flank under the conditions listed. Upon establishment of tumors, drugs were administered by oral gavage (5 days ON/2 days OFF schedule). Tumors were measured using digital calipers. […] VD=vandetanib.
as §3
TT-based tumors were grown for 46 days in athymic nu/nu male mice prior to drug administration.

[10] = Pharmacokinetic profile in murine models; assay type: in vivo, mouse
From the text: In addition to the experiments with AD57 and AD80 in drosophila, we have examined these molecules in murine models of cancer.

[11] = tested on: ER4 cells (ER4 subline of HCC827 cells resistant to erlotinib); assay: Apoptosis in ER4 cells (PARP cleavage, BIM induction); assay type: cell-based; details: 1 micromolar combined with erlotinib, 24 hour exposure
Description: FIG. 22. Induction of apoptosis by combined EGFR and AXL inhibition. ER4 cells (ER4 subline of HCC827 cells that are resistant to erlotinib treatment) plated at 0.5×10^6 cells/condition. 24-hour drug exposure. Apoptosis measured by induction of PARP cleavage and BIM induction. E is erlotinib, AD57 at 1 micromolar, AD80 at 1 micromolar, AD81 at 10 micromolar.

Src, sequence (P12931 whole entry): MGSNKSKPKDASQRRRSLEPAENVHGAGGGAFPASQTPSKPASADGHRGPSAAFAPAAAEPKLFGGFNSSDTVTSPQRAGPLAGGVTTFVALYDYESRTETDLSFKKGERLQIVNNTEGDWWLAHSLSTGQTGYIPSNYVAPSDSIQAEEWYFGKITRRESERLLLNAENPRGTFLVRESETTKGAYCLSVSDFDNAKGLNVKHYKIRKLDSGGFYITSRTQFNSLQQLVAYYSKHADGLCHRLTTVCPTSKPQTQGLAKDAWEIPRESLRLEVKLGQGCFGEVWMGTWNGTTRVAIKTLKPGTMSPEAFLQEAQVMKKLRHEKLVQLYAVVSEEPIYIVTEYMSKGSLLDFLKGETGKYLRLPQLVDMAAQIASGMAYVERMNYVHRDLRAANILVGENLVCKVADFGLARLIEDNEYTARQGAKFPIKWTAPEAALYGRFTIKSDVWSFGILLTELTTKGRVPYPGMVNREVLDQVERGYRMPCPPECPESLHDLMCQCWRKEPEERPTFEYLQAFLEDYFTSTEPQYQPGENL

Compound | basal phospho-Src in wing epithelium [1] | suppression of dRetMEN2B-induced proliferation, EMT, invasion/basal migration [1] | ectopic wing vein / wing pattern phenotype [2] | potency for Ret in vitro ([3]; purified Ret kinase domain) | Src inhibition, in words [4] | mTor inhibition, in words [5] | inhibition of MZ-CRC-1 cell viability / proliferation, in words [6] | IC50, fold more potent than Sorafenib ([6]; MZ-CRC-1 cell viability) | inhibition of TT cell viability / proliferation, in words [7] | IC50, fold lower than Vandetanib ([7]; TT cell line, dose-response) | phospho-Ret and downstream biomarkers [8] | cell death (protein markers of apoptosis) [8] | reduction of tumor progression relative to vehicle [9] [fold] | toxicity as assessed by animal body weights [9] | tumor growth, in words [9] | pharmacokinetic profile, in words [10] | apoptosis (PARP cleavage, BIM induction) [11] | Ret inhibition, in words ([3]; in vitro kinase profile, 1 μM)
CC(C)n1nc(-c2ccc(NC(=O)Nc3cccc(C(F)(F)F)c3)cc2)c2c(N)ncnc21 [AD57] | suppressed phospho-Src in basal regions of the wing epithelium | potent in vivo suppression; also recorded: strongly suppressed | suppressed | near equal potency | potent inhibitor; also recorded: strongly inhibited | potent inhibitor | most potent inhibition | approximately 150 fold | most potent inhibition | more than 150 fold | potent inhibitors | induce cell death | ~3 | no detectable toxicity | displays antitumor activity; also recorded: significant suppression of tumor growth | pharmacokinetic profiles in a range that is similar to several clinical agents | enhances apoptosis | 
CC(C)n1nc(-c2ccc(NC(=O)Nc3cc(C(F)(F)F)ccc3F)cc2)c2c(N)ncnc21 [AD80] | potently blocked | significantly improved suppression; also recorded: potently blocked | suppressed; also recorded: potently rescued |  | inhibited | not and greatly reduced mTor activity and lack significant inhibitory activity | inhibited proliferation |  | inhibited proliferation |  | potent downregulation of phospho-Ret; also recorded: potent inhibitors | induce cell death | 3.1 | reduced body weight modulation relative to Vandetanib | enhanced tumor growth inhibition | pharmacokinetic profiles in a range that is similar to several clinical agents | enhances apoptosis | inhibited
